# In US20190031665A1, “DERIVATIVES OF PYRROLOIMIDAZOLE OR ANALOGUES THEREOF WHICH ARE USEFUL FOR THE TREATMENT OF INTER ALIA CANCER” (EMCURE PHARMACEUTICALS LIMITED, priority 2016, published 2019):
# What was measured:
# [1] = biological target: T1, human indoleamine 2,3-dioxygenase 1 (hIDO1) (Homo sapiens, UniProt P14902); assay: In-vitro human indoleamine 2,3-dioxygenase 1 (IDO1) enzyme assay; assay type: biochemical; conditions: for IC50: hIDO1 enzyme; for inhibition at 1 µM: hIDO1 enzyme at 1.0 μM concentration; for inhibition at 10 µM: hIDO1 enzyme at 10.0 μM concentration
# T1 construct: His tag (N); purchased BPS Bioscience, San Diego, Calif., USA; host or cells: E. coli
# T1 sequence (P14902 whole entry): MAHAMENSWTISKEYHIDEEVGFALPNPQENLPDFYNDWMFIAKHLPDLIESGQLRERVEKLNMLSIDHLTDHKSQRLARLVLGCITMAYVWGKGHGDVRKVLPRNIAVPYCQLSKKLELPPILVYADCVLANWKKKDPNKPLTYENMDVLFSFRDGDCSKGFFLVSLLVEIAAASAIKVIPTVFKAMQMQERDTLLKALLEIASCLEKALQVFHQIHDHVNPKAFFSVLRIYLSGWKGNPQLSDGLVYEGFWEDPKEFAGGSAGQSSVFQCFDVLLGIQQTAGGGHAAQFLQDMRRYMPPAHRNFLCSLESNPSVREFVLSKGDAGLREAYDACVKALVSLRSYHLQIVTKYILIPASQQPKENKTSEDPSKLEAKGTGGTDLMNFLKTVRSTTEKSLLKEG
# Description: (§1) In-vitro human indoleamine 2,3-dioxygenase 1 (IDO1) enzyme assay: In the in-vitro human indoleamine 2,3-dioxygenase 1 (hIDO1) enzyme assay for screening inhibitor compounds, hIDO1 with an N-terminal histidine tag expressed and purified from E. coli (BPS Bioscience, San Diego, Calif., USA) was used. All other materials were procured from Sigma-Aldrich, St. Louis, Mo., USA.
# The assay method for monitoring the conversion of L-tryptophan to N-formylkynurenine by hlDO1 was carried out as follows. hlDO1 (50 ng) was incubated with tryptophan (80 μM) in the presence of ascorbic acid (10 mM), methylene blue (10 μM), catalase (100 μg/ml) and 0.01% Tween-20 in sodium phosphate buffer (50 mM; pH 6.5) at 37° C. for 60 min. The reaction was terminated with 200 mM piperidine (PIP) and further incubated at about 65° C. for about 20 minutes to convert N-formylkynurenine (NFK) to NFK-PIP. The reaction mixture was then incubated at room temperature for about 1 hour. The fluorescence intensity was read in a fluorescence microplate reader at an excitation wavelength of 400 nm and emission wavelength of 500 nm. Percent inhibition at each concentration of test compounds was determined by estimating the decrease in NFK-PIP. Data were analyzed using nonlinear regression to generate IC50 values using Graph Pad Prism® 6.
# [2] = biological target: T2, human tryptophan 2,3-dioxygenase (hTDO) (Homo sapiens, UniProt P48775); assay: In-vitro human tryptophan 2,3-dioxygenase (TDO) enzyme assay; assay type: biochemical; conditions: for inhibition at 1 µM: hTDO enzyme at 1.0 μM concentration; for inhibition at 10 µM: hTDO enzyme at 10.0 μM concentration
# T2 construct: His tag (N); purchased BPS Bioscience, San Diego, Calif., USA; host or cells: E. coli
# T2 sequence (P48775 whole entry): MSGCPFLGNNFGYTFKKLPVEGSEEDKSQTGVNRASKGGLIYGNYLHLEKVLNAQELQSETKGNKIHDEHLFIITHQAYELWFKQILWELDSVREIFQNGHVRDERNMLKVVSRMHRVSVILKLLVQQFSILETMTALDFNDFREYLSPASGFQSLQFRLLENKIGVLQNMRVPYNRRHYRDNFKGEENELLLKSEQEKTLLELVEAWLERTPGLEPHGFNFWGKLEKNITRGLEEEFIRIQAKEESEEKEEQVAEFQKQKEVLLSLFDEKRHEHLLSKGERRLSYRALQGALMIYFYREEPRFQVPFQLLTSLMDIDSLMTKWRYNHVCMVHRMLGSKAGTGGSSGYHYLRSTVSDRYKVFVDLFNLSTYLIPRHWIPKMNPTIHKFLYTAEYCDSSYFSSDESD
# Description: as §1, with “In” for “In-vitro human indoleamine 2,3-dioxygenase 1 (IDO1) enzyme assay: In”, “tryptophan” for “indoleamine”, “(hTDO)” for “1 (hIDO1)”, “hTDO” for “hIDO1”
# The assay monitoring method for the conversion of L-tryptophan to N-formylkynurenine by hTDO was carried out as follows. hTDO (125 ng) was incubated in the presence of 200 μM L-tryptophan, 100 mM sodium phosphate buffer (pH 7.0), 0.01% Tween-20 and 100 μM ascorbic acid at about 37° C. for about 60 minutes. The reaction was terminated with 200 mM piperidine (PIP) and further incubated at about 65° C. for about 20 minutes to convert N-formylkynurenine (NFK) to NFK-PIP. The reaction mixture was then incubated at room temperature for about 75 minutes. The fluorescence intensity was read in a fluorescence microplate reader at an excitation wavelength of 400 nm and emission wavelength of 500 nm. Percent inhibition at each concentration of test compounds was determined by estimating the decrease in NFK-PIP. Data were analyzed using nonlinear regression to generate IC50 values using Graph Pad Prism® 6.
Compound,IC50 [1] [nM],inhibition at 1 µM [1] [%],inhibition at 10 µM [1] [%],inhibition at 1 µM [2] [%],inhibition at 10 µM [2] [%]
"CC1=C(c2ccccc2F)C(CC(=O)C2CCC(O)CC2)n2cncc21 (single isomer, unassigned) [Example 97]",–,≤ 50,–,≥ 50,–
"CC1=C(c2ccccc2F)C(CC(=O)C2CCC(O)CC2)n2cncc21 (single isomer, unassigned) [Example 98]",–,–,≥ 50,–,–
"CC1=C(c2ccccc2)C(CC(O)C2CCC(O)CC2)n2cncc21 (single isomer, unassigned) [Example 121]",–,≤ 50,≥ 50,≤ 50,–
"CC1=C(c2ccccc2)C(CC(O)C2CCC(O)CC2)n2cncc21 (single isomer, unassigned) [Example 122]",< 500,–,–,–,–
"CC1=C(c2ccccc2)C(CC(O)C2CCN(C(=O)c3ccccn3)CC2)n2cncc21 (single isomer, unassigned) [Example 160]",–,≤ 50,≤ 50,≤ 50,–
"CC1=C(c2ccccc2)C(CC(O)C2CCN(C(=O)c3ccccn3)CC2)n2cncc21 (single isomer, unassigned) [Example 161]",> 500,–,–,–,–
"COC(=O)c1ccc(C(=O)CC2C(c3ccccc3)=C(C)c3cncn32)cc1 (single isomer, unassigned; isomer-i) [Example 71, 4-[2-(7-Methyl-6-phenyl-5H-pyrrolo[1,2-c]imidazol-5-yl)-acetyl]-benzoic acid methyl ester, Isomer-I]",< 500,≥ 50,≥ 50,≥ 50,≥ 50
CC1=C(c2ccccc2)C(C[C@H](O)C2CCC(C(=O)OC(C)(C)C)CC2)n2cncc21 (stereo in doubt) [Example 185],< 500,≥ 50,≥ 50,≥ 50,–
CCOC(=O)C1CCC([C@@H](O)CC2C(c3ccccc3)=C(C)c3cncn32)CC1 (stereo in doubt) [Example 189],< 500,≥ 50,≥ 50,≥ 50,–
"CCCCCCCCC(O)CC1C(c2ccccc2)=C(C)c2cncn21 (centres unmarked) [Compound 171, 1-(7-Methyl-6-phenyl-5H-pyrrolo[1,2-c]imidazol-5-yl)-decan-2-ol]",–,≥ 50,≥ 50,–,≥ 50
"CC1=C(c2ccccc2)C(CC(=O)N2CCC(O)CC2)n2cncc21 (centres unmarked) [Compound 175, 1-(4-Hydroxypiperidin-1-yl)-2-(7-methyl-6-phenyl-5H-pyrrolo[1,2-c]imidazol-5-yl)ethan-1-one]",–,≤ 50,≤ 50,≤ 50,–
"O=C(CC1C2=C(CCCC2)c2cncn21)c1ccccc1 (centres unmarked) [Example 1, 1-Phenyl-2-(6,7,8,9-tetrahydro-5H-imidazo[5,1-a]isoindol-5-yl)-ethanone]",–,–,≤ 50,–,≥ 50
O=C(CC1C2=C(CCCC2)c2cncn21)c1cccc(Cl)c1 (centres unmarked) [Example 3],–,–,≤ 50,–,≥ 50
OC(CC1C2=C(CCCC2)c2cncn21)c1cccc(Cl)c1 (centres unmarked) [Example 4],–,–,≤ 50,–,≥ 50
Cc1ccc(S(=O)(=O)N2CCC3=C(C2)C(CC(=O)c2ccccc2)n2cncc23)cc1 (centres unmarked) [Example 5],–,–,≤ 50,–,–
O=C(CC1C2=C(CCCC2)c2cncn21)c1cccc(OCc2ccccc2)c1 (centres unmarked) [Example 7],–,–,≤ 50,–,≥ 50
OC(CC1C2=C(CCCC2)c2cncn21)c1cccc(OCc2ccccc2)c1 (centres unmarked) [Example 8],–,–,≤ 50,–,≥ 50
O=C(CC1C2=C(CCCC2)c2cncn21)c1cc(F)ccc1F (centres unmarked) [Example 9],–,–,≤ 50,–,≥ 50
OC(CC1C2=C(CCCC2)c2cncn21)c1cc(F)ccc1F (centres unmarked) [Example 10],–,–,≤ 50,–,≥ 50
"CC1=C(c2cccc(F)c2)C(CC(=O)c2ccccc2)n2cncc21 (centres unmarked) [Example 15, 2-[6-(3-Fluoro-phenyl)-7-methyl-5H-pyrrolo[1,2-c]imidazol-5-yl]-1-phenyl-ethanone]",–,≤ 50,≥ 50,–,≥ 50
"CC1=C(c2ccccc2)C(CC(=O)c2cccc(Cl)c2)n2cncc21 (centres unmarked) [Example 17, 1-(3-Chloro-phenyl)-2-(7-methyl-6-phenyl-5H-pyrrolo[1,2-c]imidazol-5-yl)-ethanone]",< 500,≥ 50,≥ 50,≥ 50,≥ 50
"COC(=O)c1ccc(C(=O)CC2C(c3ccccc3)=C(C)c3cncn32)cc1 (centres unmarked) [Example 18, 4-[2-(7-Methyl-6-phenyl-5H-pyrrolo[1,2-c]imidazol-5-yl)-acetyl]-benzoic acid methyl ester]",< 500,≥ 50,≥ 50,≥ 50,≥ 50
CC1=C(c2ccccc2)C(CC(O)C2CCC(O)CC2)n2cncc21 (centres unmarked) [Example 111],> 500,–,≥ 50,–,–
"CCCNC(=O)CC1C(c2ccccc2)=C(C)c2cncn21 (centres unmarked) [Example 172, 2-(7-Methyl-6-phenyl-5H-pyrrolo[1,2-c]imidazol-5-yl)-N-propylacetamide]",–,≤ 50,≤ 50,–,–

# Further lines, results first:
IC50 [1] [nM],inhibition at 1 µM [1] [%],inhibition at 10 µM [1] [%],inhibition at 1 µM [2] [%],inhibition at 10 µM [2] [%],Compound
> 500,≥ 50,≥ 50,≥ 50,≥ 50,"CC1=C(c2ccccc2)C(CC(=O)c2ccccc2)n2cncc21 (single isomer, unassigned) [Example 30]"
< 500,≥ 50,≥ 50,≥ 50,–,"CC1=C(c2ccccc2)C(CC(=O)c2ccc(-c3ccccc3)cc2)n2cncc21 (single isomer, unassigned; isomer-i) [Example 42, 1-([1,1′-biphenyl]-4-yl)-2-(7-methyl-6-phenyl-5H-pyrrolo[1,2-c]imidazol-5-yl)ethan-1-one, Isomer-I]"
–,–,≤ 50,–,≥ 50,"OC(CC1C2=C(CCCC2)c2cncn21)c1ccccc1 (centres unmarked) [Example 2, 1-Phenyl-2-(6,7,8,9-tetrahydro-5H-imidazo[5,1-a]isoindol-5-yl)-ethanol]"
–,–,≤ 50,–,–,Cc1ccc(S(=O)(=O)N2CCC3=C(C2)C(CC(O)c2ccccc2)n2cncc23)cc1 (centres unmarked) [Example 6]
> 500,–,≥ 50,–,≥ 50,"CC1=C(c2ccccc2)C(CC(=O)c2ccccc2)n2cncc21 (centres unmarked) [Example 11, 2-(7-Methyl-6-phenyl-5H-pyrrolo[1,2-c]imidazol-5-yl)-1-phenyl-ethanone]"
> 500,–,≥ 50,–,≥ 50,"CC1=C(c2ccccc2)C(CC(O)c2ccccc2)n2cncc21 (centres unmarked) [Example 12, 2-(7-Methyl-6-phenyl-5H-pyrrolo[1,2-c]imidazol-5-yl)-1-phenyl-ethanol]"
–,–,≤ 50,–,–,O=C(CC1C=C(c2ccccc2)c2cncn21)c1ccccc1 (centres unmarked) [Example 13]
–,–,≤ 50,–,–,OC(CC1C=C(c2ccccc2)c2cncn21)c1ccccc1 (centres unmarked) [Example 14]
–,≤ 50,≥ 50,–,≥ 50,"CC1=C(c2cccc(F)c2)C(CC(O)c2ccccc2)n2cncc21 (centres unmarked) [Example 16, 2-[6-(3-Fluoro-phenyl)-7-methyl-5H-pyrrolo[1,2-c]imidazol-5-yl]-1-phenyl-ethanol]"
< 500,≥ 50,≥ 50,≥ 50,≥ 50,"CC1=C(c2ccccc2)C(CC(O)c2cccc(Cl)c2)n2cncc21 (centres unmarked) [Example 19, 1-(3-Chloro-phenyl)-2-(7-methyl-6-phenyl-5H-pyrrolo[1,2-c]imidazol-5-yl)-ethanol]"
–,≤ 50,≤ 50,–,–,CC1=C(c2ccccc2)c2cncn2C1CC(=O)c1ccccc1 (centres unmarked) [Example 21]
